Experimental data as given in PubChem BioAssay AID743276 (Broad Institute, 2014).
Inconclusive results are not listed. Active and inactive are the calls of the source.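 The calls were made as follows: active = compounds whose fitted cell loss curve, in every repeat run, reached half effect below twice the top dose; inconclusive = repeat runs disagree, or runs show weak or poorly fitted drops; inactive = every repeat run called inactive.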

Tested on: CAPAN-1 cell number, Hoechst imaging, 14 days
Experiment: reduction of CAPAN-1 cell number – imaging, dry powder, set 3, dose response (AID 743276)
Conditions: not given

Row | SMILES | AC50
1 | COc1ccc(-c2oc3ncnc(NCCCN4CCOCC4)c3c2-c2ccc(OC)cc2)cc1 | 43.8 µM
2 | Cc1ccc2sc(N(CCCN(C)C)C(=O)c3ccc(S(=O)(=O)N(C)C4CCCCC4)cc3)nc2c1C | 24 µM
3 | CN1CCN(CCCNC(=O)c2cc3c(-c4ccc(Cl)cc4)nn(C)c3s2)CC1 | 10.5 µM
4 | CCN1CCN(CCCNC(=O)C2CCN(c3nnc(-n4c(C)ccc4C)s3)CC2)CC1 | 20.5 µM
5 | Cc1ccc(C(=O)c2oc3ccc(Cl)cc3c2NC(=O)CN2CCN(C)CC2)cc1 | 9.78 µM
6 | CCN1CCN(c2cc(C)c3cc(NC(=O)c4ccccn4)ccc3n2)CC1 | 35.6 µM
7 | CCCCN(CC)CCNC(=O)c1cc2c(-c3ccc(Cl)cc3)nn(C)c2s1 | 3.57 µM
8 | Cc1ccc2nc(-c3ccc(NC(=S)NC4CC(C)(C)NC(C)(C)C4)cc3)sc2c1 | 12.1 µM
9 | CCCN1CCN(CCCNC(=S)Nc2ccc3nc(N4CCN(CC)CC4)cc(C)c3c2)CC1 | 24.7 µM
10 | COc1ccccc1Nc1nc(NCCCO)c2ccccc2n1 | 31.1 µM
11 | CN(C)CCCNC(=S)NCC(c1ccc(Cl)cc1Cl)c1c[nH]c2ccccc12 (stereo not drawn) | 27.4 µM
12 | Cc1cc(N2CCN(C)CC2)nc2ccc(NC(=S)NCCCN3CCN(C)CC3)cc12 | 43.7 µM
13 | Cc1cc(C)n(-c2nc(NCCN(C)C)c3c4c(sc3n2)CCCC4)n1 | 15.4 µM
14 | CCCCN(CC)CCNC(=O)CCC(=O)Nc1ccc2nc(N3CCN(C)CC3)cc(C)c2c1 | 25.1 µM
15 | Cn1nc(-c2ccc(Cl)cc2)c2cc(C(=O)NCCCN3CCCC3)sc21 | 3.72 µM
16 | OCCNc1nc(Nc2ccccc2F)nc2ccccc12 | 32 µM
17 | CC1(C)CC(NC(=O)c2ccc(Cl)c(S(=O)(=O)N(Cc3ccccc3)c3ccccc3)c2)CC(C)(C)N1 | 12.8 µM

Row | SMILES | AC50
18 | CCN(CC)CCN(C(=O)C1=COCCO1)c1nc2c(OC)ccc(OC)c2s1 | 47.5 µM
19 | COc1ccc(C2NCCc3c2[nH]c2ccccc32)cc1COc1ccc(F)cc1 (stereo not drawn) | 18.7 µM
20 | CN(C)CCCN(C(=O)c1ccc(C(=O)c2ccccc2)cc1)c1nc2cc3c(cc2s1)OCO3 | 12.7 µM
21 | Cc1ccc2sc(N(CCCN(C)C)C(=O)c3ccc(S(=O)(=O)N(C)Cc4ccccc4)cc3)nc2c1C | 9.25 µM
22 | CCN1CCc2c(sc(NC(=O)c3ccc(OC)cc3OC)c2C(N)=O)C1 | 32.7 µM
23 | Cc1cc(C)c2c(c1)c1nnc(SCCN3CCCCC3)nc1n2C | 42.3 µM
24 | Cc1c(C(=O)Nc2ccc(S(=O)(=O)N(C)C3CCN(C)CC3)cc2)oc2c(Cl)cccc12 | 11.2 µM
25 | CCN1CCN(C(=S)Nc2ccc3nc(N4CCN(C)CC4)cc(C)c3c2)CC1 | 10.7 µM
26 | CN(C)CCCN(C(=O)c1nc2ccccc2s1)c1nc2ccc(F)cc2s1 | 17 µM
27 | Cc1cc(C)c2sc(N(CCCN(C)C)C(=O)CN3C(=O)c4ccccc4C3=O)nc2c1 | 22.2 µM
28 | C=C1Nc2cc(-c3ccc(Cl)cc3)nn2C(NCCN(C)C)=C1C | 8.39 µM
29 | CCCN(CCC)CCCNC(=S)Nc1ccc2nc(N3CCN(CC)CC3)cc(C)c2c1 | 22.8 µM
30 | CCCCN(CC)CCCNC(=S)Nc1ccc2nc(N3CCN(C)CC3)cc(C)c2c1 | 37.8 µM
31 | COc1ccc2oc(C(=O)c3ccccc3)c(NC(=O)CN3CCN(C)CC3)c2c1 | 13.5 µM
32 | CCN(CC)CCNC(=S)Nc1ccc2nc(N3CCN(CC)CC3)cc(C)c2c1 | 13.8 µM
33 | c1ccc(-c2cc(N3CCC(N4CCCC4)CC3)n3nccc3n2)cc1 | 46.1 µM
34 | COc1ccccc1Nc1nc(NCCO)c2ccccc2n1 | 24.6 µM

Tested on: not listed separately
Experiment: as above
Conditions: CAPAN-1 cell number, Hoechst imaging, 14 days; at 50 µM (top of the series)

Row | SMILES | activity change, negative = fewer cells
35 | O=c1c2c(-c3ccccc3)csc2nc2c3ccccc3c(NCCN3CCOCC3)nn12 | -15.7% (inactive)
36 | CN(C)CCCNC(=S)N(CCN(C)C)Cc1cc2cc3c(cc2[nH]c1=O)OCCO3 | -2.03% (inactive)
37 | CCN(CC)CCCN(Cc1cc2cc3c(cc2[nH]c1=O)OCO3)C(=S)NCCCN(C)C | -1.27% (inactive)
38 | CCCNc1nc(Cl)nc(NCc2cccnc2)n1 | -7.79% (inactive)
